For two molecules, IC50 results are on record in article PMC8457910 (Bioorganic Chemistry, 2021).

Each structure is given as a SMILES string. pIC50: −log10 of the molar value. Where “and” joins values, the source holds several entries; their conditions need not be identical. Equal values may be shown once.

Usually pIC50 stands for the IC50 on a negative log10 scale, so that one unit is a factor of ten. A low value points to a large IC50.

The target of the assay is NusA-5HB (Severe acute respiratory syndrome coronavirus 2, UniProt P0DTC2). The experiment in a line: Competitive FP assays of small molecules. Format: binding, SARS-CoV-2. The settings on record: IC50, 8 nM NusA-5HB, 5 nM HR2P-FL, 4% DMSO.

Take `O=C(/C=C/c1ccc(O)c(O)c1/C=C/c1ccc(O)c(O)c1)O[C@H](Cc1ccc(O)c(O)c1)C(=O)O` [Sal-A, Salvianolic acid A]: the pIC50 is 5.41 and ~5.41. Take `O=C(O)/C=C/c1ccc(O)c(O)c1` [caffeic acid, Caffeic acid]: the pIC50 is 3.20 and ~3.20.
